{"source": "patent US9526785B2", "about": "“Pharmaceuticals for oral delivery” (Enteris BioPharma, Inc., priority 2013, dated 2016)", "origin": "cited, not measured here", "key": {"[1]": {"settings": "cited from earlier work"}, "[2]": {"settings": "known formulations; cited from earlier work"}}, "data": [{"smiles": "CN(C)c1cc(NC(=O)CNC(C)(C)C)c(O)c2c1C[C@H]1C[C@H]3[C@H](N(C)C)C(O)=C(C(N)=O)C(=O)[C@@]3(O)C(O)=C1C2=O", "note": "[Tigecycline]", "values": [{"measurement": "aqueous solubility", "setting": "[1]", "result": "approximately 300 mg/mL"}, {"measurement": "maximal oral bioavailablity % (% F)", "setting": "[2]", "result": "less than 5%"}]}]}
